Experimental data: US11065232B2, “Dihydrotetrabenazine for the treatment of anxiety and psychoses” (ADEPTIO PHARMACEUTICALS LIMITED, priority 2017, dated 2021)

Columns and labels:
[1] = target: T1, alpha 1B (h) (antagonist radioligand) (Homo sapiens, UniProt P35368); experiment: Receptor protein binding studies, alpha 1B
T1 sequence (P35368 1-520): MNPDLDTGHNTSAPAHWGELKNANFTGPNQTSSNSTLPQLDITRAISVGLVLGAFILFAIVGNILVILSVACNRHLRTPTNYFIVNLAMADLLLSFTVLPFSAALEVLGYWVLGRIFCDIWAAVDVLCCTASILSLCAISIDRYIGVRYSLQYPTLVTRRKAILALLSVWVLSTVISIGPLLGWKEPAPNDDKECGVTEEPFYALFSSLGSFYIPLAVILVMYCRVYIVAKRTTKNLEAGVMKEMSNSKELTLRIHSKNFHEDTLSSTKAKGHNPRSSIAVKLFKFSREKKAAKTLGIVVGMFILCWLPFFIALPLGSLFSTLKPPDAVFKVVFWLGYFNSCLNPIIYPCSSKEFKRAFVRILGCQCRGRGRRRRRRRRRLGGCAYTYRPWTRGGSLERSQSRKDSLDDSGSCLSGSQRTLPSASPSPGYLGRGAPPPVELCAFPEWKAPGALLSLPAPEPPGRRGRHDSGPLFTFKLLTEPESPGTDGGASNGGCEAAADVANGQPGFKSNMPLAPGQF
Source text: (§1) The four 3,11b trans-dihydrotetrabenazine isomers (+)-α, (−)-α, (+)-β and (−)-β were subjected to specific binding assays to test their ability to bind to the receptors and transporter proteins described below. The results are set out in Table 1

[2] = target: T2, 5-HT1A(h) (agonist radioligand) (Homo sapiens, UniProt P08908); experiment: Receptor protein binding studies, 5-HT1A
T2 sequence (P08908 1-422): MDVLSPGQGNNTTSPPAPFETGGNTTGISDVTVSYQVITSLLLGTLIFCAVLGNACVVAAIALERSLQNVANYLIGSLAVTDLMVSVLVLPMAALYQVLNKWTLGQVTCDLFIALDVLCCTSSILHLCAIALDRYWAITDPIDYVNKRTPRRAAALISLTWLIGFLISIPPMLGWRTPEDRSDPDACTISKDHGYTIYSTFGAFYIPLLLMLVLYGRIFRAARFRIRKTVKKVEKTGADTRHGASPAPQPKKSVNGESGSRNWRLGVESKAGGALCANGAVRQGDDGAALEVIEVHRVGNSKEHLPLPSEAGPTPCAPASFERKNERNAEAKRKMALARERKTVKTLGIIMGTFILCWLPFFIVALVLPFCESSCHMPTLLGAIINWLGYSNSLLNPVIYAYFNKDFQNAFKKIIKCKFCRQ
Source text: as §1

[3] = target: T3, alpha 1D (h) (antagonist radioligand) (Homo sapiens, UniProt P25100); experiment: Receptor protein binding studies, alpha 1D
T3 sequence (P25100 1-572): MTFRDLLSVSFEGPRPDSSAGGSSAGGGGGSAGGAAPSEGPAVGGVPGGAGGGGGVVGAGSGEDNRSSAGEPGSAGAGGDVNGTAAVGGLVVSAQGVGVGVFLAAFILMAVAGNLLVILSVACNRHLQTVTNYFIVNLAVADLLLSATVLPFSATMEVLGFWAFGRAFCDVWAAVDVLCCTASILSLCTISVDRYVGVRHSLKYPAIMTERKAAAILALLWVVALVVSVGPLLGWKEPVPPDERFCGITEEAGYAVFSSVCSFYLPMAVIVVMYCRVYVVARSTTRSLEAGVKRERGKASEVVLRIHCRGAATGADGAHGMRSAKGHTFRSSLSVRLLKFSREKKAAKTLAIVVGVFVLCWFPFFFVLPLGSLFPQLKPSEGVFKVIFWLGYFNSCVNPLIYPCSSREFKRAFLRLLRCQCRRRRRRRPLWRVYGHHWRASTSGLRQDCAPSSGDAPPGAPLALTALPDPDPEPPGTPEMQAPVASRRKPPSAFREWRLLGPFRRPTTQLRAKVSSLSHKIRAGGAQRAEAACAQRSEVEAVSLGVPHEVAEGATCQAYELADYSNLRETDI
Source text: as §1

[4] = target: T4, 5-HT2C (h) (agonist radioligand) (Homo sapiens, UniProt P28335); experiment: Receptor protein binding studies, 5-HT2C
T4 sequence (P28335 33-458): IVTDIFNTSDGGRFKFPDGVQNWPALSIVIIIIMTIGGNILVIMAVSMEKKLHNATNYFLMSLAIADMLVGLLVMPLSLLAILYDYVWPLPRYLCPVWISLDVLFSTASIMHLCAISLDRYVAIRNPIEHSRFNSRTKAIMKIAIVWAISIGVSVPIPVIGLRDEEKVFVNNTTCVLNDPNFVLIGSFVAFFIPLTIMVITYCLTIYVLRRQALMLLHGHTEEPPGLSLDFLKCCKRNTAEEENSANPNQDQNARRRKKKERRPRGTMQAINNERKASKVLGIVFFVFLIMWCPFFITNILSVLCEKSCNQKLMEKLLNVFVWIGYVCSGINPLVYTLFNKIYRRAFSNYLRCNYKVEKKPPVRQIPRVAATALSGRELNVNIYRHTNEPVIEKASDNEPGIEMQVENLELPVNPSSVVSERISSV
Source text: as §1

[5] = target: D2S (h) (antagonist radioligand) (Homo sapiens, UniProt P14416); experiment: Receptor protein binding studies, D2S
Chain of D2S (h) (antagonist radioligand) (P14416 1-414 isoform P14416-2): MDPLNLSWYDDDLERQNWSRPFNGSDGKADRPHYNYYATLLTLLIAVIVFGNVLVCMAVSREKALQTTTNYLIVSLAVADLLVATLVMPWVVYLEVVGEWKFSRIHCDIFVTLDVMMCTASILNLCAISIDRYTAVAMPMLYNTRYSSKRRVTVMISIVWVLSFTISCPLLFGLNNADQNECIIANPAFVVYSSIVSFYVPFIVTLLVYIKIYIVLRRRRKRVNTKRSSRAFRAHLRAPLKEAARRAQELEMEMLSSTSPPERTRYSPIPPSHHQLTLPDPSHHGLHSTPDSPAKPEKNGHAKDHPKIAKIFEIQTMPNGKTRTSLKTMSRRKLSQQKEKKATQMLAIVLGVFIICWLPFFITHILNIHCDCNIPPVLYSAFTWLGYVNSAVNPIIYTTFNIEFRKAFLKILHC
Source text: as §1

5-HT5A(h) = 5-HT5A(h) (Homo sapiens, UniProt P47898); experiment: Receptor protein binding studies, 5-HT5A
Chain of 5-HT5A(h) (P47898 whole entry): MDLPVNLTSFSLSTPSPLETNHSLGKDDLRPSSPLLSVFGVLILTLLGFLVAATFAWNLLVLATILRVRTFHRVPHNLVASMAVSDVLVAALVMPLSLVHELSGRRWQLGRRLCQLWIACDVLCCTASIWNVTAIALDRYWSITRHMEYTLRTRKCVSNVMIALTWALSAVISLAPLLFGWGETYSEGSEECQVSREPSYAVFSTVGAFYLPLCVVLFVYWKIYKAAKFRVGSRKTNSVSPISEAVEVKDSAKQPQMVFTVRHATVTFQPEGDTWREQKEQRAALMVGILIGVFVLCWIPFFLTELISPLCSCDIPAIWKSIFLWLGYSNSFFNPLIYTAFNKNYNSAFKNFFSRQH
Source text: as §1

[6] = target: mu (MOP) (h) (agonist radioligand) (Homo sapiens, UniProt P35372); experiment: Receptor protein binding studies, mu (MOP)
Chain of mu (MOP) (h) (agonist radioligand) (P35372 whole entry): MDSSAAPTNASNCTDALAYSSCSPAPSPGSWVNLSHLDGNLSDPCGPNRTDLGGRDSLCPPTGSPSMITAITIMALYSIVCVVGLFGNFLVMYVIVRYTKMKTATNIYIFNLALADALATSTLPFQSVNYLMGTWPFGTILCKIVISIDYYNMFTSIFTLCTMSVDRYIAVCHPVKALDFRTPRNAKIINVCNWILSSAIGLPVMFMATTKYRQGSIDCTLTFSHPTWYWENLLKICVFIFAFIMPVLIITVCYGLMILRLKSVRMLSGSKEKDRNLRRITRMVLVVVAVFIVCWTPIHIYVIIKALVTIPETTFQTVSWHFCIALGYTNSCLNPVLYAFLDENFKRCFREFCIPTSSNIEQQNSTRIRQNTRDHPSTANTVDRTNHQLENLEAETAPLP
Source text: as §1

[7] = target: Sigma 2 (h) (agonist radioligand) (Homo sapiens, UniProt Q5BJF2); experiment: Receptor protein binding studies, Sigma 2
Chain of Sigma 2 (h) (agonist radioligand) (Q5BJF2 whole entry): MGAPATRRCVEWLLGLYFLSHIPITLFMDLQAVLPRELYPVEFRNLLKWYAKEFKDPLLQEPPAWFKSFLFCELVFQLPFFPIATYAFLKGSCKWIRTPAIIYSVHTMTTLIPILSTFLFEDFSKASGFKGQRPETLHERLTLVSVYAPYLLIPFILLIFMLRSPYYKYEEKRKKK
Source text: as §1

[8] = target: 5-HT2B (h) (agonist radioligand) (Homo sapiens, UniProt P41595); experiment: Receptor protein binding studies, 5-HT2B
Chain of 5-HT2B (h) (agonist radioligand) (P41595 whole entry): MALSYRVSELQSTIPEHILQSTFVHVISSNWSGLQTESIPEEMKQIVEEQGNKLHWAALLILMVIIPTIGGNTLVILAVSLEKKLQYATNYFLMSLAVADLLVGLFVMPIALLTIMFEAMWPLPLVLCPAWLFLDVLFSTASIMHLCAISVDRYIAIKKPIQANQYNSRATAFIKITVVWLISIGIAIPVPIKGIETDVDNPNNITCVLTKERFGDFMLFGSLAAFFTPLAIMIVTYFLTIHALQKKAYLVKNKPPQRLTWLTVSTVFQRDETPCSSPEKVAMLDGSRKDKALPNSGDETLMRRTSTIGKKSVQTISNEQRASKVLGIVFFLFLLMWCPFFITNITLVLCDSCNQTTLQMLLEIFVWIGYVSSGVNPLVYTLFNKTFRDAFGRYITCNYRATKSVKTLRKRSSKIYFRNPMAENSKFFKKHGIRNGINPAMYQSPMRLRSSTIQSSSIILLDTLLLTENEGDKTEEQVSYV
Source text: as §1

Substance | % Inhibition of specific binding ([1]; CONC 1.0E−05 (unit not given)) | % Inhibition of specific binding ([1]; CONC 1.0E−06 (unit not given)) | % Inhibition of specific binding ([2]; CONC 1.0E−05 (unit not given)) | % Inhibition of specific binding ([2]; CONC 1.0E−06 (unit not given)) | % Inhibition of specific binding ([3]; CONC 1.0E−05 (unit not given)) | % Inhibition of specific binding ([3]; CONC 1.0E−06 (unit not given)) | % Inhibition of specific binding ([4]; CONC 1.0E−05 (unit not given)) | % Inhibition of specific binding ([4]; CONC 1.0E−06 (unit not given)) | % Inhibition of specific binding ([5]; CONC 1.0E−05 (unit not given)) | % Inhibition of specific binding ([5]; CONC 1.0E−06 (unit not given)) | % Inhibition of specific binding (5-HT5A(h); CONC 1.0E−05 (unit not given)) | % Inhibition of specific binding (5-HT5A(h); CONC 1.0E−06 (unit not given)) | % Inhibition of specific binding ([6]; CONC 1.0E−05 (unit not given)) | % Inhibition of specific binding ([6]; CONC 1.0E−06 (unit not given)) | % Inhibition of specific binding ([7]; CONC 1.0E−05 (unit not given)) | % Inhibition of specific binding ([7]; CONC 1.0E−06 (unit not given)) | % Inhibition of specific binding ([8]; CONC 1.0E−05 (unit not given)) | % Inhibition of specific binding ([8]; CONC 1.0E−06 (unit not given))
(+)-α-dihydrotetrabenazine [(+)-Alpha] | 23% | −4% | 83% | 38% | −10% | 15% | 3% | −8% | 7% | −1% | −2% | −26% | 5% | 0% | 70% | 34% | 0% | −4%
(+)-β-dihydrotetrabenazine [(+)-Beta] | 1% | 3% | 64% | 20% | 20% | 18% | −5% | 2% | 7% | −8% | −13% | −23% | 2% | 7% | 85% | 41% | −7% | −2%
(−)-α-dihydrotetrabenazine [(−)-Alpha] | 14% | 9% | 96% | 80% | 25% | 13% | 16% | 0% | 73% | 22% | −6% | −24% | 2% | 11% | 85% | 52% | 92% | 55%
